Laboratory results as given in PubChem BioAssay (NCI).
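Where inhibition never reached the appropriate level, the endpoint shown equals the highest concentration tested. Otherwise, values were interpolated linearly from a five-concentration, 48-hour dose response in 96-well plates. TGI denotes the concentration required for complete inhibition of growth.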

Columns and labels:
Experiment in all cases: NCI tumour cell line growth inhibition, 48 h
DU-145 prostate = system: DU-145 prostate
HT29 colon = system: HT29 colon
SF-268 CNS = system: SF-268 CNS
SNB-75 CNS = system: SNB-75 CNS
MALME-3M melanoma = system: MALME-3M melanoma
SR leukemia = system: SR leukemia
ACHN renal = system: ACHN renal
HCT-15 colon = system: HCT-15 colon
UACC-257 melanoma = system: UACC-257 melanoma
OVCAR-3 ovarian = system: OVCAR-3 ovarian
SF-295 CNS = system: SF-295 CNS
CCRF-CEM leukemia = system: CCRF-CEM leukemia
RXF 393 renal = system: RXF 393 renal
LOX IMVI melanoma = system: LOX IMVI melanoma
HS 578T breast = system: HS 578T breast
SN12C renal = system: SN12C renal
KM12 colon = system: KM12 colon
T-47D breast = system: T-47D breast
UO-31 renal = system: UO-31 renal
NCI-H226 lung = system: NCI-H226 lung
M14 melanoma = system: M14 melanoma
MCF7 breast = system: MCF7 breast
TK-10 renal = system: TK-10 renal
IGROV1 ovarian = system: IGROV1 ovarian
NCI/ADR-RES ovarian = system: NCI/ADR-RES ovarian
BT-549 breast = system: BT-549 breast
NCI-H460 lung = system: NCI-H460 lung
MDA-MB-231 breast = system: MDA-MB-231 breast
U251 CNS = system: U251 CNS
HL-60(TB) leukemia = system: HL-60(TB) leukemia
SK-MEL-5 melanoma = system: SK-MEL-5 melanoma
A549 NSCLC = system: A549 NSCLC
SF-539 CNS = system: SF-539 CNS
NCI-H23 lung = system: NCI-H23 lung
OVCAR-5 ovarian = system: OVCAR-5 ovarian
SW-620 colon = system: SW-620 colon
SNB-19 CNS = system: SNB-19 CNS
HOP-62 NSCLC = system: HOP-62 NSCLC
K-562 leukemia = system: K-562 leukemia
786-0 renal = system: 786-0 renal
MDA-N = system: MDA-N
MOLT-4 leukemia = system: MOLT-4 leukemia
COLO 205 colon = system: COLO 205 colon
PC-3 prostate = system: PC-3 prostate
HCT-116 colon = system: HCT-116 colon
NCI-H522 lung = system: NCI-H522 lung
UACC-62 melanoma = system: UACC-62 melanoma
OVCAR-4 ovarian = system: OVCAR-4 ovarian
HOP-92 NSCLC = system: HOP-92 NSCLC
RPMI-8226 leukemia = system: RPMI-8226 leukemia
SK-OV-3 ovarian = system: SK-OV-3 ovarian
HCC-2998 colon = system: HCC-2998 colon
EKVX NSCLC = system: EKVX NSCLC
MDA-MB-435 = system: MDA-MB-435
CAKI-1 renal = system: CAKI-1 renal
SK-MEL-28 melanoma = system: SK-MEL-28 melanoma
SK-MEL-2 melanoma = system: SK-MEL-2 melanoma
OVCAR-8 ovarian = system: OVCAR-8 ovarian
A498 renal = system: A498 renal

SMILES: NC1=Nc2ccccc2Sc2nc3ccccc3n21
- TGI (DU-145 prostate): > 100 µM
- TGI (HT29 colon): 31.3 µM
- TGI (SF-268 CNS): > 100 µM
- TGI (SNB-75 CNS): > 100 µM
- TGI (MALME-3M melanoma): > 100 µM
- TGI (SR leukemia): > 100 µM
- TGI (ACHN renal): > 100 µM
- TGI (HCT-15 colon): > 100 µM
- TGI (UACC-257 melanoma): > 100 µM
- TGI (OVCAR-3 ovarian): > 100 µM
- TGI (SF-295 CNS): > 100 µM
- TGI (CCRF-CEM leukemia): > 100 µM
- TGI (RXF 393 renal): > 100 µM
- TGI (LOX IMVI melanoma): > 100 µM
- TGI (HS 578T breast): > 100 µM
- TGI (SN12C renal): > 100 µM
- TGI (KM12 colon): > 100 µM
- TGI (T-47D breast): > 100 µM
- TGI (UO-31 renal): 40.9 µM
- TGI (NCI-H226 lung): > 100 µM
- TGI (M14 melanoma): 82.4 µM
- TGI (MCF7 breast): > 100 µM
- TGI (TK-10 renal): > 100 µM
- TGI (IGROV1 ovarian): > 100 µM
- TGI (NCI/ADR-RES ovarian): > 100 µM
- TGI (BT-549 breast): > 100 µM
- TGI (NCI-H460 lung): > 100 µM
- TGI (MDA-MB-231 breast): > 100 µM
- TGI (U251 CNS): > 100 µM
- TGI (HL-60(TB) leukemia): 6.49 µM
- TGI (SK-MEL-5 melanoma): > 100 µM
- TGI (A549 NSCLC): > 100 µM
- TGI (SF-539 CNS): > 100 µM
- TGI (NCI-H23 lung): > 100 µM
- TGI (OVCAR-5 ovarian): > 100 µM
- TGI (SW-620 colon): > 100 µM
- TGI (SNB-19 CNS): > 100 µM
- TGI (HOP-62 NSCLC): > 100 µM
- TGI (K-562 leukemia): > 100 µM
- TGI (786-0 renal): 5.23 µM
- TGI (MDA-N): > 100 µM
- TGI (MOLT-4 leukemia): > 100 µM
- TGI (COLO 205 colon): > 100 µM
- TGI (PC-3 prostate): > 100 µM
- TGI (HCT-116 colon): 32.8 µM
- TGI (NCI-H522 lung): > 100 µM
- TGI (UACC-62 melanoma): > 100 µM
- TGI (OVCAR-4 ovarian): > 100 µM
- TGI (HOP-92 NSCLC): > 100 µM
- TGI (RPMI-8226 leukemia): > 100 µM
- TGI (SK-OV-3 ovarian): 77.9 µM

SMILES: C[C@]12CC[C@H](O)CC1=CC[C@@H]1[C@@H]2CC[C@]2(C)C(=O)/C(=C/c3ccc([N+](=O)[O-])cc3)C[C@@H]12
- TGI (DU-145 prostate): 44.9 µM
- TGI (HT29 colon): > 100 µM
- TGI (HCC-2998 colon): > 100 µM
- TGI (SF-268 CNS): 21.5 µM
- TGI (EKVX NSCLC): 24.9 µM
- TGI (SNB-75 CNS): 9.67 µM
- TGI (MALME-3M melanoma): 53.7 µM
- TGI (SR leukemia): > 100 µM
- TGI (ACHN renal): 33.4 µM
- TGI (HCT-15 colon): > 100 µM
- TGI (MDA-MB-435): > 100 µM
- TGI (UACC-257 melanoma): 56 µM
- TGI (OVCAR-3 ovarian): 33.8 µM
- TGI (SF-295 CNS): 20.6 µM
- TGI (CCRF-CEM leukemia): > 100 µM
- TGI (RXF 393 renal): 25 µM
- TGI (LOX IMVI melanoma): 22.5 µM
- TGI (HS 578T breast): 29.5 µM
- TGI (SN12C renal): 33 µM
- TGI (KM12 colon): > 100 µM
- TGI (T-47D breast): 61.6 µM
- TGI (CAKI-1 renal): > 100 µM
- TGI (UO-31 renal): 28 µM
- TGI (NCI-H226 lung): 10.2 µM
- TGI (M14 melanoma): > 100 µM
- TGI (MCF7 breast): > 100 µM
- TGI (IGROV1 ovarian): 21.8 µM
- TGI (NCI/ADR-RES ovarian): 61.1 µM
- TGI (BT-549 breast): 57.5 µM
- TGI (NCI-H460 lung): > 100 µM
- TGI (HL-60(TB) leukemia): > 100 µM
- TGI (SK-MEL-5 melanoma): 43.5 µM
- TGI (A549 NSCLC): 29.8 µM
- TGI (SF-539 CNS): 20.9 µM
- TGI (NCI-H23 lung): 57 µM
- TGI (OVCAR-5 ovarian): 50.9 µM
- TGI (SW-620 colon): > 100 µM
- TGI (SK-MEL-28 melanoma): 74.7 µM
- TGI (SNB-19 CNS): 27.8 µM
- TGI (HOP-62 NSCLC): 17 µM
- TGI (K-562 leukemia): > 100 µM
- TGI (786-0 renal): 10.8 µM
- TGI (MDA-N): > 100 µM
- TGI (SK-MEL-2 melanoma): 36.5 µM
- TGI (MOLT-4 leukemia): > 100 µM
- TGI (PC-3 prostate): 31 µM
- TGI (HCT-116 colon): 62.3 µM
- TGI (NCI-H522 lung): 30.6 µM
- TGI (UACC-62 melanoma): > 100 µM
- TGI (OVCAR-4 ovarian): 32.3 µM
- TGI (HOP-92 NSCLC): 22.6 µM
- TGI (OVCAR-8 ovarian): 12.3 µM
- TGI (RPMI-8226 leukemia): > 100 µM
- TGI (A498 renal): 30.4 µM
- TGI (SK-OV-3 ovarian): 22.6 µM
